Data published in patent US9642909B2, “Pharmaceutical compositions comprising attenuated Plasmodium sporozoites and glycolipid adjuvants” (Sanaria Inc., priority 2011, dated 2017).
Where “and” joins values, the source holds several entries; their conditions need not be identical. Identical values can stand only once. Like-named read-outs stand apart in the source and are kept apart here.

Columns and labels:
iNKT cells [1] = conditions: human; cited from earlier work
iNKT cells [2] = conditions: mouse; cited from earlier work
[3] = tested on: IFN-γ-secreting CS-specific CD8+ cells; conditions: irradiated sporozoites SC with α-GalCer by the same route vs without; cited from earlier work
CD1d = CD1d (Homo sapiens, UniProt P15813); conditions: cited from earlier work
CD1d, sequence (P15813 20-335, species assumed): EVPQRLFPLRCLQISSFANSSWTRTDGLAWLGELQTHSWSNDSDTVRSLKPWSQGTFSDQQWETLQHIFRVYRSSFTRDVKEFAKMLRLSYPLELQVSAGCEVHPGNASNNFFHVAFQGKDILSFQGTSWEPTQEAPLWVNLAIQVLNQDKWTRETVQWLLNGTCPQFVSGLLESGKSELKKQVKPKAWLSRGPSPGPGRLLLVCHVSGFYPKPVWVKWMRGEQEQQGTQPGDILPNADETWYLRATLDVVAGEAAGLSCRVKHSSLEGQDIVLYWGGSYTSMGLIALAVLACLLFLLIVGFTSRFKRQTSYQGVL
CD1d, sequence (P61769 21-119 partner, species assumed): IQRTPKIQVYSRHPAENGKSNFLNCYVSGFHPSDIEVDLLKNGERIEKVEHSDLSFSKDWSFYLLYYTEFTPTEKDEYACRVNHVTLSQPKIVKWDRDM

[4] = pre-loaded autologous PBMCs or direct injection; cited from earlier work
[5] = tested on: pathogenic P. yoelii sporozoites; assay: Protection of BALB/c mice after intradermal immunization with irr PySPZ mixed with 7DW8-5 at base of tail; assay type: in vivo
Method: To determine whether protective immunogenicity of attenuated sporozoites is maintained or enhanced in the presence of 7DW8-5, mice were immunized by intradermal (ID) injection alone, with 2 doses at 2-week intervals of 15,000, 10,000, 5,000 and 2,500 sporozoites and unlike Examples 1-5, 1 μg 7DW8-5 was mixed as a composition with sporozoites and the composition of adjuvant and sporozoites was delivered ID at the base of the tail. With 2 doses of 15,000 sporozoites in the presence of adjuvant 100% of the mice were protected, and at lower doses of sporozoites 60-80% of the mice were protected. In the absence of adjuvant, only 40% of mice receiving 2 doses of 15,000 sporozoites were protected.
Protection conferred by a single dose of a composition of 1 μg 7DW8-5 adjuvant and varying amounts of sporozoites delivered ID was measured. For this 15,000 and 30,000 sporozoites were administered to mice ID as described above. These doses were partially protective at 60% and 40% respectively.
The next step in development was to assess purified irr PySPZ BALB/c/mice were immunized with irr PySPZ purified as described, in the presence or absence of 7DW8-5 adjuvant.

[6] = tested on: pathogenic P. yoelii sporozoites; conditions: versus α-GalCer, cited from earlier work
[7] = tested on: pathogenic P. yoelii sporozoites; assay: Protection of BALB/c mice against pathogenic P. yoelii sporozoite challenge after a single IV dose of irr PySPZ with or without 7DW8-5 IP; assay type: in vivo
Method: To determine if the adjuvant 7DW8-5 could decrease the number of doses of irr PySPZ required to confer protection, a suboptimal dosing regimen was performed. irr PySPZ (17NXL) were dissected from the salivary glands of A. stephensi mosquitoes and injected intravenously (IV) into BALB/c mice as a single dose of either of 5×10^4 or 1×10^4 sporozoites. Two μg of 7DW8-5 was concurrently administered intraperitoneally (IP) in some mice. Fourteen days later, mice were challenged with 100 non-irradiated pathogenic P. yoelii sporozoites. Protection was assessed by Giemsa-stained blood smears and was defined as the complete absence of parasitemia 7 and 14 days post infection.
A second experiment was performed to confirm the results shown in Example 1. […] Again, adjuvant in the absence of antigen had no effect.
Using the single dose methodology of Example 1 with radiation attenuated Py sporozoites that have been purified using the purification procedure disclosed in Sim et al. (U.S. Pat. No. 8,043,625, incorporated in its entirety herein by reference) a third experiment was performed. Using 1×10^4 purified sporozoites administered IV in a single dose, 3 out of 10 mice were protected, whereas 7 of 10 mice were protected when the adjuvant was concurrently administered IP.
To determine the optimal single dose of attenuated sporozoites (in conjunction with 7DW8-5 concurrently administered distally IP) that confers protection by the IV route, mice were injected IV with 0, 2500, 5000, 10,000 and 20,000 sporozoites. Two μg of 7DW8-5 were injected IP.

[8] = summary of Examples 1-3, one dose irr PySPZ IV, 7DW8-5 IP where given

Structure (SMILES) | activation of iNKT cells (iNKT cells [1]) | activation of iNKT cells (iNKT cells [2]) | increase in number of IFN-γ-secreting CS-specific CD8+ cells [3] | affinity for CD1d (CD1d) | safety and tolerability [4] | ability to elicit cytokine production from iNKT cells (iNKT cells [1]) | # protected/# challenged ([5]; Example 6, 0 sporozoites, 1 μg 7DW8-5 per mouse ID) | protection ([5]; Example 8, adjuvant alone) | ability to elicit cytokine production from iNKT cells (iNKT cells [2]) | malaria-specific humoral response ([6]; co-administered IM with adenovirus vaccine) | malaria-specific CD8+ T cell response ([6]; co-administered IM with suboptimal dose of adenovirus vaccine) | adjuvant effect in enhancing protective efficacy ([6]; single immunizing dose of adenovirus recombinant vaccine) | # protected/# challenged ([7]; Example 1, 2 μg 7DW8-5 IP alone, no sporozoites) | # protected/# challenged ([7]; Example 2, 2 μg 7DW8-5 IP alone, no sporozoites) | # protected/# challenged ([7]; Example 3, 2 μg 7DW8-5 IP alone, no sporozoites) | First Challenge # protected/# re-challenged ([7]; Example 4 table, first challenge, 2 μg 7DW8-5 IP alone) | # protected/# challenged ([7]; Example 5, 0 sporozoites, 2 μg 7DW8-5 IP) | percent protected [7, 8] [%] | protected/challenged [7, 8]
CCCCCCCCCCCCCCCCCCCCCCCCCC(=O)N[C@@H](CO[C@H]1O[C@H](CO)[C@H](O)[C@H](O)[C@H]1O)[C@H](O)[C@H](O)CCCCCCCCCCCCCC [α-GalCer, α-galactosylceramide] | potent activator | potent activator | seven fold | high affinity | safe and well tolerated |  |  |  |  |  |  |  |  |  |  |  |  |  | 
CCCCCCCCCCCCCC[C@@H](O)[C@@H](O)[C@H](COC1OC(CO)C(O)C(O)C1O)NC(=O)CCCCCCCCCCc1ccc(F)cc1 (stereo partly shown) [7DW8-5] |  |  |  |  |  | superior ability | 0/5 | No protection | superior ability | equally if not slightly stronger than α-GalCer | significantly more than α-GalCer | significantly stronger adjuvant effect than α-GalCer | no protection and 0/5 | no effect and 0/5 | 0/5 | 0/5 | 0/5 | 0 | 0/15
